Patent publication US20260001889A1, “COMPOSITIONS USEFUL FOR MODULATING SPLICING” (Skyhawk Therapeutics, Inc., priority 2022, published 2026)

How the values were obtained:
total ATXN3 protein = experiment: ATXN3 Total Protein Assay (Mesoscale Discovery, SK-N-MC cells); assay type: cell-based, Human; settings: incubation for 48 hours, MSD assay
Summary of the method: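 Human SK-N-MC neuroblastoma cells treated with compound at 30 μM to 0.6 nM for 48 h, then lysed with protease inhibitors. Total ATXN3 quantified by MSD sandwich immunoassay (mouse capture, rabbit detect antibodies, anti-rabbit MSD-ST secondary) against recombinant ATXN3 standards.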

ATXN3-HiBiT protein = experiment: ATXN3 Total Protein Assay (Kelly-ATXN3-HiBiT luminescence); assay type: cell-based; settings: Kelly-ATXN3-HiBiT cells, 48 h after addition of compound
Summary of the method: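 Kelly cells with homozygous C-terminal HiBiT knock-in on endogenous ATXN3, 2000 per well, dosed 24 h after seeding. HiBiT lytic luminescence read 48 h after compound; sister plate read with CellTiter-Glo for viability; fold change vs DMSO.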

[1] = tested on: ATXN3 transcripts containing exon 4; experiment: ATXN3 Quantitative Splicing Assay (qPCR, E4E5 primers/probe); assay type: cell-based; settings: Homo sapiens, SK-N-MC cells, compounds for 24 h
Summary of the method: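 SK-N-MC human neuroblastoma cells treated 24 h with compound from 30 μM to 0.6 nM, 24 h after plating. Lysate cDNA was run in TaqMan qPCR, with primers/probe E4E5 detecting exon 4-containing ATXN3 transcripts and E8E9 measuring total ATXN3.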

Compound | IC50 (total ATXN3 protein) | EC50 (ATXN3-HiBiT protein) | IC50 [1]
C[C@H](F)[C@H](N)Cc1oc2c(NCc3cccs3)cc(Cl)nc2c1-c1ccnn1C [Compound 334, 2-[(2R,3S)-2-amino-3-fluorobutyl]-5-chloro-3-(1-methyl-5-pyrazolyl)-7-thenylamino-1-oxa-4-azaindene] | 10 to 40 µM | 10 to 40 µM | 10 to 40 µM
C[C@H](N)Cc1oc2c(NCc3ccc(F)cc3)cc(Cl)nc2c1Br [Compound 338, 2-[(S)-2-aminopropyl]-3-bromo-5-chloro-7-{[(p-fluorophenyl)methyl]amino}-1-oxa-4-azaindene] | 0.501 to 5 µM | 0.501 to 5 µM | 0.501 to 5 µM
C[C@H](N)Cc1oc2c(NCc3ccccc3F)cc(Cl)nc2c1Br [Compound 340, 2-[(S)-2-aminopropyl]-3-bromo-5-chloro-7-{[(o-fluorophenyl)methyl]amino}-1-oxa-4-azaindene] | 0.501 to 5 µM | 0.501 to 5 µM | 0.501 to 5 µM
